# Experimental data as given in patent publication US6713500B2, “Agent for controlling animal diseases caused by parasites” (Ishihara Sangyo Kaisha Ltd., priority 1999, dated 2004).
# Where two headings read alike, the source gives them in different places.
# Tested on: Eimeria tenella of wild type (fresh immature oocysts)
# Test: microbe, parasite or virus in culture
# Assay type: cell-based
# Details: read-out: Mortality of oocysts (%)
# Description: Chicks were infested with Eimeria tenella of wild type to obtain fresh immature oocycts. The obtained fresh immature oocysts were exposed to a solution of each test substance having a predetermined concentration for 10 or 30 minutes. The exposed immature oocysts were centrifuged at 1500 min^−1 for 5 minutes, and the supernatant was removed. Then, a 2% potassium bichromate aqueous solution was added, and sporulation was carried out at 25° C. for 4 days, whereupon the ratio of mature oocysts (sporulated oocysts) to the number of observed oocysts, was calculated.
# Mortality of oocysts={1−(sporulation rate with exposure to test substance)/(sporulation rate without exposure to test substance)}×100
Structure (SMILES),mortality at 0.1 ppm (10 min) [%],mortality at 1 ppm (10 min) [%],mortality at 10 ppm (10 min) [%],mortality at 0.1 ppm (0.5 h) [%],mortality at 1 ppm (0.5 h) [%],mortality at 10 ppm (0.5 h) [%],"mortality at 0.1 ppm (10 min, Exposure time: 10 min, 0.1 ppm) [%]","mortality at 1 ppm (10 min, Exposure time: 10 min, 1 ppm) [%]","mortality at 10 ppm (10 min, Exposure time: 10 min, 10 ppm) [%]","mortality at 0.1 ppm (0.5 h, Exposure time: 30 min, 0.1 ppm) [%]","mortality at 1 ppm (0.5 h, Exposure time: 30 min, 1 ppm) [%]","mortality at 10 ppm (0.5 h, Exposure time: 30 min, 10 ppm) [%]"
"Cc1ccc(-c2c(Cl)nc(C#N)n2S(=O)(=O)N(C)C)cc1 [compound 1, 4-chloro-2-cyano-1-dimethylsulfamoyl-5-(4-methylphenyl)imidazole]",43.8,36.9,42.5,51.1,80.3,87.9,,,,,,
"CCc1ccc(C(F)c2c(Cl)nc(C#N)n2S(=O)(=O)N(C)C)cc1 (stereo not drawn) [compound 5, 4-chloro-2-cyano-1-dimethylsulfamoyl-5-(4-ethyl-α-fluorobenzyl)imidazole]",,,,,,,34.4,30,75,71.3,75.2,72.6
